Source: ChEMBL document CHEMBL4673391, “Multiresidue Tetrapeptide Substitutions Yield a 140-fold Selective Melanocortin-3 over Melanocortin-4 Receptor Agonist” (ACS Med Chem Lett, 2021)

Tests used:
[1] = biological target: Melanocyte-stimulating hormone receptor (Mus musculus, UniProt Q01727); assay: Agonist activity at mouse melanocortin receptor 1 expressed in HEK293 cells assessed as stimulation of cAMP accumulation incubated for 2 hrs by cAMP Alpha-screen assay; format: functional, cell-based
Melanocortin receptor 3 = Melanocortin receptor 3 (Mus musculus, UniProt P33033); assay: Agonist activity at mouse melanocortin receptor 3 expressed in HEK293 cells assessed as stimulation of cAMP accumulation incubated for 2 hrs by cAMP Alpha-screen assay; format: functional, cell-based
Melanocortin receptor 4 [2] = biological target: T1, Melanocortin receptor 4 (Mus musculus, UniProt P56450); assay: Antagonist activity at mouse melanocortin receptor 4 expressed in HEK293 cells assessed as inhibition of NDP-MSH-induced cAMP accumulation incubated for 2 hrs by cAMP Alpha-screen assay based Schild analysis; format: functional, cell-based; settings: for Kb: read-out: pA2 (converted)
Melanocortin receptor 5 = Melanocortin receptor 5 (Mus musculus, UniProt P41149); assay: Agonist activity at mouse melanocortin receptor 5 expressed in HEK293 cells assessed as stimulation of cAMP accumulation incubated for 2 hrs by cAMP Alpha-screen assay; format: functional, cell-based
[3] = biological target: Melanocortin receptor 4 (Mus musculus) (UniProt P56450); assay: Agonist activity at mouse melanocortin receptor 4 expressed in HEK293 cells assessed as stimulation of cAMP accumulation at 100 uM incubated for 2 hrs by cAMP Alpha-screen assay relative to control; format: functional, cell-based
Mus musculus [4] = organism: Mus musculus; assay: Selectivity index, ratio of Ki for mouse melanocortin receptor 4 expressed in HEK293 cells to EC50 for mouse melanocortin receptor 3 expressed in HEK293 cells assessed as stimulation of cAMP accumulation incubated for 2 hrs by cAMP Alpha-screen assay; format: cell-based
Mus musculus [5] = organism: Mus musculus; assay: Selectivity index, ratio of EC50 for mouse melanocortin receptor 4 expressed in HEK293 cells to EC50 for mouse melanocortin receptor 3 expressed in HEK293 cells assessed as stimulation of cAMP accumulation incubated for 2 hrs by cAMP Alpha-screen assay; format: cell-based
Melanocortin receptor 4 [6] = biological target: T1, Melanocortin receptor 4; assay: Agonist activity at mouse melanocortin receptor 4 expressed in HEK293 cells assessed as stimulation of cAMP accumulation incubated for 2 hrs by cAMP Alpha-screen assay; format: functional, cell-based
[7] = biological target: Melanocyte-stimulating hormone receptor (Mus musculus) (UniProt Q01727); assay: Partial agonist activity at mouse melanocortin receptor 1 expressed in HEK293 cells assessed as stimulation of cAMP accumulation incubated for 2 hrs by cAMP Alpha-screen assay relative to NDP-MSH; format: functional, cell-based; settings: filed as partial agonist
Sequence of Melanocyte-stimulating hormone receptor (Mus musculus) (Q01727 whole entry, looked up): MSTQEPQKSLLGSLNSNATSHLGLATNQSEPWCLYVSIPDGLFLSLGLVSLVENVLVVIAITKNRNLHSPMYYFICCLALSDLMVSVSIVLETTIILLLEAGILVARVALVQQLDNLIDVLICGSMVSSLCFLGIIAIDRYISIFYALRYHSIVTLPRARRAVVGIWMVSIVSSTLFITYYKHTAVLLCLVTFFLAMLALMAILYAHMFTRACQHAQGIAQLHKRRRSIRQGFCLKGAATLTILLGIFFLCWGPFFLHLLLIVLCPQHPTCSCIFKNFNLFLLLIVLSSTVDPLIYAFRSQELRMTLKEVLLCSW

Sequence of Melanocortin receptor 4 (Mus musculus) (P56450 whole entry): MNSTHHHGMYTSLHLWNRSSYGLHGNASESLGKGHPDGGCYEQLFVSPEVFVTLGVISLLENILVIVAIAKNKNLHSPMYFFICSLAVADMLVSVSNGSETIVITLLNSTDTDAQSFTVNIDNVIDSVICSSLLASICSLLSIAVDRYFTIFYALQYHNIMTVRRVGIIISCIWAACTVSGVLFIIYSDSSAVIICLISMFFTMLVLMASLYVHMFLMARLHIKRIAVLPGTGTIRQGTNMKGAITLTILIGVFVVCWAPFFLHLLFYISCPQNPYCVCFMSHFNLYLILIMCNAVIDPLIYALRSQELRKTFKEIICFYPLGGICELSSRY
T1 sequence (P56450 whole entry): as above
Sequence of Melanocyte-stimulating hormone receptor (Q01727 whole entry): as the sequence (Q01727 whole entry, looked up) above
Sequence of Melanocortin receptor 5 (P41149 whole entry): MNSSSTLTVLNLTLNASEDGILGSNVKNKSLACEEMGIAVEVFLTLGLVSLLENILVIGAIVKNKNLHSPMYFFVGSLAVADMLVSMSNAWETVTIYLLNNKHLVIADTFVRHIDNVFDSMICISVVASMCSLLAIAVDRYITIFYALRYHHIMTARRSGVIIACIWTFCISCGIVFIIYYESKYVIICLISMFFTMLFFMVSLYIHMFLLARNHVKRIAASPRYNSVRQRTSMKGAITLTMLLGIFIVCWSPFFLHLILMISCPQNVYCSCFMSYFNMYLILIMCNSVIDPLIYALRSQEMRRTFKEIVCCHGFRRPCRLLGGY
Sequence of Melanocortin receptor 3 (P33033 whole entry): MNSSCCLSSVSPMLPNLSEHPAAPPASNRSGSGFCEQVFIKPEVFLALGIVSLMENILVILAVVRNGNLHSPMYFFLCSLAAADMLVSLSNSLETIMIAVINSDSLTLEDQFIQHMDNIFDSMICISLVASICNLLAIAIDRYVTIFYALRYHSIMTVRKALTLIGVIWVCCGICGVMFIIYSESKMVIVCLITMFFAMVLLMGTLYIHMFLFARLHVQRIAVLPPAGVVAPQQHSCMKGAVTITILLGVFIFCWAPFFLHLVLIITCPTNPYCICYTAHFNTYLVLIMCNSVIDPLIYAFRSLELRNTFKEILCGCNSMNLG

Row | SMILES | EC50 [1] [nM] | EC50 (Melanocortin receptor 3) [nM] | Ki (Melanocortin receptor 4 [2]) [nM] | Kb (Melanocortin receptor 4 [2]) [nM] | EC50 (Melanocortin receptor 5) [nM] | Activity ([3]; filed as agonist) [%] | EC50 (Melanocortin receptor 4 [6]) [nM] | Activity [7] [%] | Activity [3] [%] | Selectivity ratio (Mus musculus [4]) | Ratio EC50 (Mus musculus [5])
1 | CC(=O)N[C@@H](Cc1c[nH]cn1)C(=O)N[C@@H](CCC(N)=O)C(=O)N[C@H](Cc1ccc(-c2ccccc2)cc1)C(=O)N1Cc2ccccc2C[C@@H]1C(N)=O | 123 | 110 | 3980 | 3980 | 39 | 50 | – | – | – | 36 | –
2 | CC(=O)N[C@H](C(=O)N[C@@H](CCC(N)=O)C(=O)N[C@H](Cc1ccc(-c2ccccc2)cc1)C(=O)N1Cc2ccccc2C[C@@H]1C(N)=O)C(C)C | 150 | 70 | > 10000 | > 10000 | 36 | 40 | – | 75 | – | > 140 | –
3 | CC(=O)N[C@H](C(=O)N[C@@H](CCC(N)=O)C(=O)N[C@H](Cc1ccc(-c2ccccc2)cc1)C(=O)N1Cc2ccccc2C[C@H]1C(N)=O)C(C)C | 80 | 110 | > 10000 | > 10000 | 31 | – | – | 85 | 20 | > 90 | –
4 | CC(=O)N[C@@H](Cc1c[nH]cn1)C(=O)N[C@@H](CCCNC(=N)N)C(=O)N[C@H](Cc1ccc(-c2ccccc2)cc1)C(=O)N1Cc2ccccc2C[C@@H]1C(N)=O | 0.9 | 39 | 320 | 316 | 26 | – | – | – | 35 | 8 | –
5 | CC(=O)N[C@@H](Cc1c[nH]cn1)C(=O)N[C@@H](CCCNC(=N)N)C(=O)N[C@H](Cc1ccc(-c2ccccc2)cc1)C(=O)N1Cc2ccccc2C[C@H]1C(N)=O | 0.5 | 22 | 320 | 316 | 9 | – | – | – | 35 | 14 | –
6 | CC(=O)N[C@@H](Cc1c[nH]cn1)C(=O)N[C@@H](CCC(N)=O)C(=O)N[C@H](Cc1ccc(-c2ccccc2)cc1)C(=O)N1Cc2ccccc2C[C@H]1C(N)=O | 160 | 150 | 10000 | 10000 | 31 | – | – | – | 20 | 65 | –

The next lines start with results.

Row | EC50 [1] [nM] | EC50 (Melanocortin receptor 3) [nM] | Ki (Melanocortin receptor 4 [2]) [nM] | Kb (Melanocortin receptor 4 [2]) [nM] | EC50 (Melanocortin receptor 5) [nM] | Activity ([3]; filed as agonist) [%] | EC50 (Melanocortin receptor 4 [6]) [nM] | Activity [7] [%] | Activity [3] [%] | SMILES | Selectivity ratio (Mus musculus [4]) | Ratio EC50 (Mus musculus [5])
7 | 11 | 14 | – | – | 5.6 | – | 400 | – | – | CC(=O)N[C@@H](CCCNC(=N)N)C(=O)N[C@@H](CCC(N)=O)C(=O)N[C@H](Cc1ccc(-c2ccccc2)cc1)C(=O)N1Cc2ccccc2C[C@@H]1C(N)=O | – | 28
8 | 1.1 | 40 | 400 | 398 | 18 | – | – | – | 10 | CC(=O)N[C@H](C(=O)N[C@@H](CCCNC(=N)N)C(=O)N[C@H](Cc1ccc(-c2ccccc2)cc1)C(=O)N1Cc2ccccc2C[C@H]1C(N)=O)C(C)C | 10 | –
9 | 1.7 | 36 | 250 | 251 | 25 | – | – | – | 35 | CC(=O)N[C@H](C(=O)N[C@@H](CCCNC(=N)N)C(=O)N[C@H](Cc1ccc(-c2ccccc2)cc1)C(=O)N1Cc2ccccc2C[C@@H]1C(N)=O)C(C)C | 7 | –
10 | 60 | 66 | 2000 | 2000 | 16.4 | 40 | – | – | – | CC(=O)N[C@@H](CCCNC(=N)N)C(=O)N[C@@H](CCC(N)=O)C(=O)N[C@H](Cc1ccc(-c2ccccc2)cc1)C(=O)N1Cc2ccccc2C[C@H]1C(N)=O | 30 | –
11 | 0.23 | 11 | 125 | 126 | 3.5 | – | – | – | 35 | CC(=O)N[C@@H](CCCNC(=N)N)C(=O)N[C@@H](CCCNC(=N)N)C(=O)N[C@H](Cc1ccc(-c2ccccc2)cc1)C(=O)N1Cc2ccccc2C[C@H]1C(N)=O | 11 | –
12 | 0.6 | 14 | 160 | 158 | 5.7 | 40 | – | – | – | CC(=O)N[C@@H](CCCNC(=N)N)C(=O)N[C@@H](CCCNC(=N)N)C(=O)N[C@H](Cc1ccc(-c2ccccc2)cc1)C(=O)N1Cc2ccccc2C[C@@H]1C(N)=O | 11 | –
